system: P493-6 (myc "on") cells; test: Cell Proliferation Assay; type: cell-based; details: P493-6, 72 h, read-out: Cell prolif P493 72 h IC50, P493 cells, 72 h
Experimental: P493-6 (myc “on”) cells were maintained in growth media (RPMI-1640, 10% FBS, 2 mM glutamine, 100 units/ml Penicillin and 100 μg/ml streptomycin) at 37° C. with 5% CO2. For compound assay, P493-6 cells were plated in 96-well V-bottom plates on the day of compound addition in 50 μl of growth media at a cell density of 200,000 cells/ml (10,000 cells/well). Compounds were serially diluted in 100% DMSO at 200-times the final concentration. Compounds were diluted 100-fold into growth media and then 50 μl of this mixture was added to cell plates making the final concentration of DMSO 0.5%. Cells were incubated with compound for 72 hrs at 37° C. with 5% CO2 and analyzed for antiproliferative effects either by Cell Titer Glo (Promega) or FACS analysis using the Viacount (Millipore) kit on the Guava instrument.

Going from `N[C@H](C(=O)Nc1nnc(CCSCCc2nnc(NC(=O)[C@@H](N)c3ccccc3)s2)s1)c1ccccc1` [Compound 175] to `N[C@@H](C(=O)Nc1nnc(CCCCc2nnc(NC(=O)[C@H](N)c3ccccc3)s2)s1)c1ccccc1` [Compound 186], the IC50 falls from 23 µM to 13 µM (1.8-fold). The second is the more potent here.

Going from `O=C(Nc1nnc(CCCc2nnc(NC(=O)C(CO)c3ccccc3)s2)s1)C(CO)c1ccccc1` (stereo not drawn) [Compound 176] to `C=CCC(C(=O)Nc1nnc(CCCCc2nnc(NC(=O)C(CC=C)c3ccccc3)s2)s1)c1ccccc1` (stereo not drawn) [Compound 209], the IC50 rises from 1.5 µM to 22 µM (15-fold).

`O=C(CC(C(=O)O)c1ccccc1)Nc1nnc(CCCCc2nnc(NC(=O)CC(C(=O)O)c3ccccc3)s2)s1` (stereo not drawn) [Compound 177] and `COC(=O)C(CC(=O)Nc1nnc(CCCCc2nnc(NC(=O)CC(C(=O)O)c3ccccc3)s2)s1)c1ccccc1` (stereo not drawn) [Compound 178] cannot be ordered by IC50: greater than 50 µM for the first, greater than 50 µM for the second.

Going from `O=C(CCC(C(=O)O)c1ccccc1)Nc1nnc(CCSCCc2nnc(NC(=O)CCC(C(=O)O)c3ccccc3)s2)s1` (stereo not drawn) [Compound 179] to `NCCC(C(=O)Nc1nnc(CCSCCc2nnc(NC(=O)C(CN)c3ccccc3)s2)s1)c1ccccc1` (stereo not drawn) [Compound 214], the IC50 falls from greater than 50 µM to 1.2 µM. The second is the more potent here.

Going from `O=C(Nc1nnc(CCSCCc2nnc(NC(=O)c3ccccc3CO)s2)s1)c1ccccc1CO` [Compound 180] to `O=C(Cc1ccccc1CO)Nc1nnc(CCSCCc2nnc(NC(=O)Cc3ccccc3CO)s2)s1` [Compound 181, N,N′-(5,5′-(thiobis(ethane-2,1-diyl))bis(1,3,4-thiadiazole-5,2-diyl))bis(2-(2-(hydroxymethyl)phenyl)acetamide)], the IC50 falls from greater than 50 µM to 30 µM. The second is the more potent here.

`CS(=O)(=O)c1ccc(CC(=O)Nc2nnc(CCSCCc3nnc(NC(=O)Cc4ccc(S(C)(=O)=O)cc4)s3)s2)cc1` [Compound 182] and `NS(=O)(=O)c1ccc(CC(=O)Nc2nnc(CCSCCc3nnc(NC(=O)Cc4ccc(S(N)(=O)=O)cc4)s3)s2)cc1` [Compound 217] cannot be ordered by IC50: greater than 50 µM for the first, greater than 50 µM for the second.

Going from `CC(C)(C)OC(=O)Nc1ccc(CC(=O)Nc2nnc(CCSCCc3nnc(NC(=O)Cc4ccc(NC(=O)OC(C)(C)C)cc4)s3)s2)cc1` [Compound 185] to `CC(C)(C)OC(=O)Nc1ccc(CC(=O)Nc2nnc(CCCCc3nnc(NC(=O)Cc4ccc(NC(=O)OC(C)(C)C)cc4)s3)s2)cc1` [Compound 192], the IC50 falls from 0.09 µM to 0.03 µM (3-fold).

Compared with `N[C@H](C(=O)Nc1nnc(CCCCc2nnc(NC(=O)[C@@H](N)c3ccccc3)s2)s1)c1ccccc1` [Compound 187], `O=C(Nc1nnc(CCCCc2nnc(NC(=O)[C@@H](O)[C@H](O)c3ccccc3)s2)s1)[C@@H](O)[C@H](O)c1ccccc1` [Compound 226] is higher in IC50: 21 µM for the first, greater than 50 µM for the second.

Going from `O=C(Nc1nnc(CCCCc2nnc(NC(=O)C(CO)c3cccs3)s2)s1)C(CO)c1cccs1` (stereo not drawn) [Compound 190] to `COc1cccc(C(CO)C(=O)Nc2nnc(CCCCc3nnc(NC(=O)C(CO)c4cccc(OC)c4)s3)s2)c1` (stereo not drawn) [Compound 257], the IC50 falls from 0.49 µM to 0.073 µM (6.7-fold). The second is the more potent here.

Going from `Nc1ccc(CC(=O)Nc2nnc(CCSCCc3nnc(NC(=O)Cc4ccc(N)cc4)s3)s2)cc1` [Compound 195] to `Nc1ccc(CC(=O)Nc2nnc(CCCCc3nnc(NC(=O)Cc4ccc(N)cc4)s3)s2)cc1` [Compound 196], the IC50 falls from 1.3 µM to 0.61 µM (2.1-fold).

`NS(=O)(=O)c1ccc(CC(=O)Nc2nnc(CCCCc3nnc(NC(=O)Cc4ccc(S(N)(=O)=O)cc4)s3)s2)cc1` [Compound 198] and `N#Cc1ccc(CC(=O)Nc2nnc(CCSCCc3nnc(NC(=O)Cc4ccc(C#N)cc4)s3)s2)cc1` [Compound 216] cannot be ordered by IC50: greater than 50 µM for the first, greater than 50 µM for the second.

`O=C(Cc1ccccc1)Nc1nnc(CCSCc2nnc(NC(=O)Cc3ccccc3)s2)s1` [Compound 199] and `COc1ccccc1CC(=O)Nc1nnc(CCSCc2nnc(NC(=O)Cc3ccccc3OC)s2)s1` [Compound 249] are within 1.5-fold of each other in IC50: 0.17 µM for the first, 0.16 µM for the second.

Going from `COCCOC(C(=O)Nc1nnc(CCCCc2nnc(NC(=O)C(OCCOC)c3ccccc3)s2)s1)c1ccccc1` (stereo not drawn) [Compound 203] to `COCOCCOC(C(=O)Nc1nnc(CCCCc2nnc(NC(=O)C(OCCOCOC)c3ccccc3)s2)s1)c1ccccc1` (stereo not drawn) [Compound 251], the IC50 rises from 1.7 µM to 2.8 µM (1.6-fold).

`COCC(C(=O)Nc1nnc(CCSCCc2nnc(NC(=O)C(COC)c3ccccc3)s2)s1)c1ccccc1` (stereo not drawn) [Compound 204] and `COC(=O)C(C(=O)Nc1nnc(CCSCCc2nnc(NC(=O)C(C(=O)OC)c3ccccc3)s2)s1)c1ccccc1` (stereo not drawn) [Compound 234] are within 1.5-fold of each other in IC50: 2.4 µM for the first, 2.5 µM for the second.

Compared with `O=C(Cc1ccccc1CO)Nc1nnc(CCCCc2nnc(NC(=O)Cc3ccccc3CO)s2)s1` [Compound 208], `COc1ccccc1CC(=O)Nc1nnc(CCCCc2nnc(NC(=O)Cc3ccccc3OC)s2)s1` [Compound 264] is 900-fold lower in IC50: 9 µM for the first, 0.01 µM for the second. The second is the more potent here.

Compared with `O=C(Nc1nnc(CCCCc2nnc(NC(=O)[C@@H](O)c3ccccc3Cl)s2)s1)[C@@H](O)c1ccccc1Cl` [Compound 210], `CC(C(=O)Nc1nnc(CCCCc2nnc(NC(=O)C(C)c3ccccc3Cl)s2)s1)c1ccccc1Cl` (stereo not drawn) [Compound 274] is 1.6-fold higher in IC50: 0.42 µM for the first, 0.68 µM for the second. The first is the more potent here.

Going from `O=C(Nc1nnc(CCCCc2nnc(NC(=O)C(O)c3cccc(F)c3F)s2)s1)C(O)c1cccc(F)c1F` (stereo not drawn) [Compound 211] to `O=C(Cc1cccc(F)c1)Nc1nnc(CCCCc2nnc(NC(=O)Cc3cccc(F)c3)s2)s1` [Compound 273], the IC50 falls from 1 µM to 0.07 µM (14-fold).

Going from `O=C(Cn1ccc2ccccc21)Nc1nnc(CCSCCc2nnc(NC(=O)Cn3ccc4ccccc43)s2)s1` [Compound 213] to `COc1ccccc1CC(=O)Nc1nnc(CCSCCc2nnc(NC(=O)Cc3ccccc3OC)s2)s1` [Compound 219], the IC50 falls from 4.4 µM to 0.57 µM (7.7-fold). The second is the more potent here.

First: COC(=O)C(C(=O)Nc1nnc(CCCCc2nnc(NC(=O)C(C(=O)OC)c3ccccc3)s2)s1)c1ccccc1 (stereo not drawn) [Compound 220]
Second: CC(=O)NCC(C(=O)Nc1nnc(CCCCc2nnc(NC(=O)C(CNC(C)=O)c3ccccc3)s2)s1)c1ccccc1 (stereo not drawn) [Compound 266]
The IC50 of the first is lower: 0.31 µM for the first, greater than 50 µM for the second. The first is the more potent here.

First: Nc1nnc(CCCCc2nnc(NC(=O)C(CO)c3ccccc3)s2)s1 (stereo not drawn) [Compound 227]
Second: O=C(CCN1CCOCC1)OCC(C(=O)Nc1nnc(CCCCc2nnc(NC(=O)C(CO)c3ccccc3)s2)s1)c1ccccc1 (stereo not drawn) [Compound 228, 3-((5-{4-[5-(3-hydroxy-2-phenylpropanamido)-1,3,4-thiadiazol-2-yl]butyl}-1,3,4-thiadiazol-2-yl)amino)-3-oxo-2-phenylpropyl 3-morpholinopropanoate]
The IC50 of the first is 25-fold higher: 3.3 µM for the first, 0.13 µM for the second.

Compared with `O=C(Cc1cccc(OCCO)c1)Nc1nnc(CCSCCc2nnc(NC(=O)Cc3cccc(OCCO)c3)s2)s1` [Compound 236], `Cc1cccc(CC(=O)Nc2nnc(CCSCCc3nnc(NC(=O)Cc4cccc(C)c4)s3)s2)c1` [Compound 247] is 1.7-fold lower in IC50: 1.4 µM for the first, 0.83 µM for the second.

Compared with `O=C(Cc1cccs1)Nc1nnc(CCSCc2nnc(NC(=O)Cc3cccs3)s2)s1` [Compound 237], `O=C(Cc1cccc(Br)c1)Nc1nnc(CCSCCc2nnc(NC(=O)Cc3cccc(Br)c3)s2)s1` [Compound 270] is 3.4-fold higher in IC50: 0.25 µM for the first, 0.85 µM for the second.

First: O=C(Cc1cccc(OCCN2CCOCC2)c1)Nc1nnc(CCSCCc2nnc(NC(=O)Cc3cccc(OCCN4CCOCC4)c3)s2)s1 [Compound 240]
Second: O=C(Cc1cccc(OCCN2CCOCC2)c1)Nc1nnc(CCSCc2nnc(NC(=O)Cc3cccc(OCCN4CCOCC4)c3)s2)s1 [Compound 267]
The IC50 of the first is 2-fold higher: 1.3 µM for the first, 0.64 µM for the second.

Going from `O=C(CN1C(=O)OC[C@H]1c1ccccc1)Nc1nnc(CCSCCc2nnc(NC(=O)CN3C(=O)OC[C@H]3c3ccccc3)s2)s1` [Compound 243] to `COc1ccccc1CC(=O)Nc1nnc(CCSCCc2nnc(NC(=O)C(CO)c3ccccc3OC)s2)s1` (stereo not drawn) [Compound 246], the IC50 falls from 33 µM to 1.6 µM (21-fold).

First: COc1ccccc1C(CO)C(=O)Nc1nnc(CCSCCc2nnc(NC(=O)C(CO)c3ccccc3OC)s2)s1 (stereo not drawn) [Compound 245]
Second: COc1ccccc1C(C)C(=O)Nc1nnc(CCSCCc2nnc(NC(=O)C(C)c3ccccc3OC)s2)s1 (stereo not drawn) [Compound 263]
The IC50 of the first is 1.6-fold lower: 2.5 µM for the first, 3.9 µM for the second.

Compared with `O=C(Nc1nnc(CCCCc2nnc(NC(=O)C(OCCO)c3ccccc3)s2)s1)C(OCCO)c1ccccc1` (stereo not drawn) [Compound 252], `O=C(Nc1nnc(CCCCc2nnc(NC(=O)C(O)(CO)c3ccccc3)s2)s1)C(O)(CO)c1ccccc1` (stereo not drawn) [Compound 278] is 39-fold lower in IC50: 6.3 µM for the first, 0.16 µM for the second. The second is the more potent here.

Going from `COc1cccc(C(CO)C(=O)Nc2nnc(CCSCc3nnc(NC(=O)C(CO)c4cccc(OC)c4)s3)s2)c1` (stereo not drawn) [Compound 258] to `COc1ccc(OC)c(CC(=O)Nc2nnc(CCCCc3nnc(NC(=O)Cc4ccccc4)s3)s2)c1` [Compound 271], the IC50 rises from 0.18 µM to 0.63 µM (3.5-fold). The first is the more potent here.

Compared with `COc1cccc(CC(=O)Nc2nnc(CCSCCc3nnc(NC(=O)Cc4cccc(OC)c4OC)s3)s2)c1OC` [Compound 259], `COc1cccc(CC(=O)Nc2nnc(CCCCc3nnc(NC(=O)Cc4cccc(OC)c4OC)s3)s2)c1OC` [Compound 260] is 6.8-fold lower in IC50: 0.57 µM for the first, 0.084 µM for the second. The second is the more potent here.

`CC(C(=O)Nc1nnc(CCSCCc2nnc(NC(=O)C(C)c3ccccc3Cl)s2)s1)c1ccccc1Cl` (stereo not drawn) [Compound 261] and `Cc1ccccc1C(C)C(=O)Nc1nnc(CCSCCc2nnc(NC(=O)C(C)c3ccccc3C)s2)s1` (stereo not drawn) [Compound 262] are within 1.5-fold of each other in IC50: 2.6 µM for the first, 3.1 µM for the second.

Compared with `COc1ccc(OC)c(CC(=O)Nc2nnc(CCCc3nnc(NC(=O)Cc4cc(OC)ccc4OC)s3)s2)c1` [Compound 265], `O=C(Cc1ccc2ncccc2c1)Nc1nnc(CCCCc2nnc(NC(=O)Cc3ccc4ncccc4c3)s2)s1` [Compound 269] is 1.7-fold higher in IC50: 0.31 µM for the first, 0.52 µM for the second.

`O=C(Cc1ccc2ncccc2c1)Nc1nnc(CCSCCc2nnc(NC(=O)Cc3ccc4ncccc4c3)s2)s1` [Compound 268] and `CC1(C)OCC(C(=O)Nc2nnc(CCCCc3nnc(NC(=O)Cc4ccccc4)s3)s2)(c2ccccc2)O1` (stereo not drawn) [Compound 279] are within 1.5-fold of each other in IC50: 5.4 µM for the first, 7 µM for the second.

For `CC(C)(C)OC(=O)N1CCN(Cc2cccc(CC(=O)Nc3nnc(CCSCc4nnc(NC(=O)Cc5cccc(CN6CCN(C(=O)OC(C)(C)C)CC6)c5)s4)s3)c2)CC1` [Compound 275], the IC50 was 0.34 µM.

Reference: patent US20150004134A1, “TREATMENT OF CANCER WITH HETEROCYCLIC INHIBITORS OF GLUTAMINASE” (Calithera Biosciences, Inc., priority 2012, published 2015)
